# Experiments:
# [1] = Phase 1 open-label study Part 1: safety and tolerability; format: in vivo, human
# Source text: (§1) This is a multi-part, Phase 1, open-label, multicenter study to evaluate the safety, pharmacokinetics, pharmacodynamics, and preliminary clinical activity of JNJ-64619178 monotherapy administered either to adult human subjects with advanced solid tumors or B cell non-Hodgkin lymphomas who previously received or are ineligible for standard treatment options, or to adult subjects with lower risk myelodysplastic syndromes (MDS) who are red blood cell (RBC) transfusion-dependent and relapsed or refractory to erythropoiesis-stimulating agent (ESA) treatment.
# Fifteen (15) participants with various solid tumors (e.g., breast cancer, prostate cancer, salivary duct carcinoma, adenoid cystic carcinoma) were dosed in the “Part 1” study described below with JNJ-64619178 at 0.5 mg (1′ cohort), 1 mg (2nd cohort), 2 mg (3rd cohort) and 4 mg (4th cohort) under a schedule of 14 days continuous dose administration followed by a 7-day rest period (14 days on/7 days off in a 21-day cycle). Average treatment duration ranged from 4 weeks in the 4th cohort (4 mg 14 days on/7 days off) to 6 months in the 2nd cohort (1 mg 14 days on/7 days off). […] The Part 1 study is ongoing.
# (§2) Fifty-four (54) participants with various solid tumors (e.g., breast cancer, prostate cancer, salivary duct carcinoma, adenoid cystic carcinoma, and uveal melanoma) were dosed in the “Part 1” study described below with JNJ-64619178 at 0.5 mg (1st cohort), 1 mg (2nd cohort), 2 mg (3rd cohort), 4 mg (4th cohort), and 3 mg (5th cohort) under a schedule of 14 days continuous dose administration followed by a 7-day rest period (14 days on/7 days off in a 21-day cycle); or at 1 mg (6th cohort) or 2 mg (7th cohort) under a schedule of 21 days continuous dosing. Average treatment duration was 3 months, with a range of 0.4 to 22.4 months. […] The maximum tolerated dose was considered 3 mg on the 14 days on/7 days off schedule or 2 mg on the continuous dosing schedule. […] The participant with confirmed PR was from cohort 2.
# The JNJ-64619178 starting dose is based on toxicology results obtained using no observed adverse effect level (NOAEL) dose, more conservative than the highest non-severely toxic dose (HNSTD) in the dog as the most sensitive species. Using a default safety factor of 6 (used for HNSTD in non-rodents), a starting dose of 0.54 mg once daily (QD) was obtained, which was rounded to 0.5 mg QD. A single dose of the study drug will be administered in the pharmacokinetic run-in phase for Part 1. During the treatment phase, the study drug will be administered for 14 consecutive days followed by 7 days of rest (14 days on/7 days off dose administration) on a 21 day cycle. Alternative dosing schedules (e.g., continuous dosing, 7 days on/7 days off, and 7 days on/14 days off) are also evaluated.
# The study was initiated with dose Schedule A (14 days on/7 days off dose administration on a 21-day cycle). Table B below provides an example of possible dose escalation.
# [2] = system: NCI-H1048 human xenograft model of SCLC; experiment: NCI-H1048 human SCLC xenograft, once daily oral dosing up to 28 days (Study 1); format: in vivo, mice
# Protocol: JNJ-64619178 was tested for antitumor activity in the NCI-H1048 human xenograft model of SCLC. Male mice were subcutaneously implanted with NCI-H1048 cells, and tumors were allowed to grow for 14 days, reaching 174±51 mm^3 in volume, when treatment was started. Mice were administered once daily oral doses of JNJ-64619178 at 1, 3, and 10 mg/kg or 20% hydroxypropyl-β-cyclodextrin (HP-β-CD) vehicle control for up to 28 days.
# FIG. 1 details the individual tumor regrowth observed following cessation of once daily treatment with 10 mg/kg JNJ 64619178 or vehicle control. In all 8 mice treated with 10 mg/kg JNJ 64619178, tumor regrowth began approximately 14 days after cessation of dosing, with tumors reaching ethical limits by Day 92 postimplantation.
# [3] = system: NCI-H1048 xenografts; experiment: NCI-H1048 xenograft, continuous versus 7+/7- dosing (Study 3); format: in vivo, mice; settings: 10 mg/kg once daily oral, at day 28
# Protocol: FIG. 4 is a line graph showing extended tumor growth inhibition using a dosing cessation of the compound of the disclosure in the NCI-H1048 tumor model at a JNJ64619178 dosage of 10 mg/kg for either 28 consecutive days or for two cycles of 7 daily drug treatment followed by 7 days dosing holidays (7+/7 −, 2 cycles).
# In all xenografts studies, the average tumor volume at treatment initiation was about 150 mm^3 and mean tumor volumes (mm^3)±SEM of each group were graphed over time as indicated in FIG. 4.
# [4] = system: various solid tumors; experiment: Phase 1 open-label study Part 1: preliminary clinical activity (RECIST); format: in vivo, human
# Source text: as §1, §2
# (§3) Two provisional RP2Ds were selected: 1.5 mg intermittently and 1 mg QD.
# [5] = molecular target: PRMT5/MEP50 complex (Homo sapiens, UniProt O14744); experiment: in vitro thermal shift experiments; format: binding
# Source text: (§4) This unique mode-of-binding translates into very potent and time-dependent PRMT5 enzyme inhibition.
# [6] = system: NCI H1048 human SCLC xenografts; experiment: second NCI-H1048 human SCLC mouse xenograft study, 10 days dosing and 10 days regrowth observation; format: in vivo, mice; settings: 10 mg/kg oral gavage for 10 days
# [7] = molecular target: PRMT5/MEP50 (Homo sapiens, UniProt O14744); experiment: surface plasmon resonance binding studies
# Source text: as §4
# [8] = Phase 1 open-label study Part 1: plasma pharmacokinetics; format: in vivo; settings: human plasma, oral capsules
# Protocol: as §3
# The pharmacokinetic run-in phase will evaluate the single-dose pharmacokinetics of JNJ 64619178 prior to subsequent daily dose administration in the treatment phase. Subjects will be administered a single-dose of study drug at the site on Day 1 and remain at site for at least 6 hours for pharmacokinetic assessments. The single-dose of study drug will be followed by a 6 day rest period (i.e., Days 2 to 7 [a range of 5 to 10 days is allowed]) during which pharmacokinetic blood sample and ECG collection will be conducted. Certain subjects in Part 1 may not participate in the pharmacokinetic run-in phase.
# The treatment phase begins on Cycle 1 Day 1 with the administration of the study drug and continues until the completion of the end-of-treatment visit. During the treatment phase, multiple-dose pharmacokinetics of JNJ-64619178 will be evaluated. On Cycle 1 Day 14, subjects in Part 1 will remain at site for at least 8 hours after the study drug administration for pharmacokinetic and ECG assessments. Study drug should be administered at approximately the same time each day for accurate evaluation of the pharmacokinetics of JNJ 64619178.
# [9] = system: plasma SDMA; experiment: Phase 1 open-label study Part 1: target engagement by plasma SDMA; format: in vivo, human; settings: even with intermittent dosing
# Protocol: as §3
# Sequence of PRMT5/MEP50 complex (O14744 whole entry): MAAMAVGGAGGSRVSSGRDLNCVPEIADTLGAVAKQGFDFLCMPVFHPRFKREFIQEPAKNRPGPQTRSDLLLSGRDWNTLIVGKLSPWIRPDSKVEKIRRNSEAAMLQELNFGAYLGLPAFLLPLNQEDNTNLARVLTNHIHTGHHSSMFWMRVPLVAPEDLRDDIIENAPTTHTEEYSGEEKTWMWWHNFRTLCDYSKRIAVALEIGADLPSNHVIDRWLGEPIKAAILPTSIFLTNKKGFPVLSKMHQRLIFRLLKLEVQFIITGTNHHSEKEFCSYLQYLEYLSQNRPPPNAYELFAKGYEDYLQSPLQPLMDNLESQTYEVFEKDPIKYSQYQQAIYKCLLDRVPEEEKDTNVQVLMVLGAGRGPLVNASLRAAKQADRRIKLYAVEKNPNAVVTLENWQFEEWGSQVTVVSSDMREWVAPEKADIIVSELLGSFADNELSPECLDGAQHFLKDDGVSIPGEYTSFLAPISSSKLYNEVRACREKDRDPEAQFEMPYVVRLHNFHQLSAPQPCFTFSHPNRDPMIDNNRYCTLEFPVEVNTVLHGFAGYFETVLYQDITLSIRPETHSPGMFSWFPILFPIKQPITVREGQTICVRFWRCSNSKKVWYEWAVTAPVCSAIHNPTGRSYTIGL
# Sequence of PRMT5/MEP50 complex (Q9BQA1 whole entry partner): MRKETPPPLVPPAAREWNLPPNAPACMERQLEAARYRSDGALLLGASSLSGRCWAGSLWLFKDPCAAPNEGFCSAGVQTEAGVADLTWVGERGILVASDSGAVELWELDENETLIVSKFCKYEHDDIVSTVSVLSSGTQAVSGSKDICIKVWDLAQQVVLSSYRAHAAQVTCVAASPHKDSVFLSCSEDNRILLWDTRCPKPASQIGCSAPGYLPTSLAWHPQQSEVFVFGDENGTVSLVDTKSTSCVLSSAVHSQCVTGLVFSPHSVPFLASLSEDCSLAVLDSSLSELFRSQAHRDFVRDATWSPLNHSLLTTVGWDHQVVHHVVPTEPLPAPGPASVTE
# Sequence of PRMT5/MEP50 (O14744 whole entry): as the sequence (O14744 whole entry) above
# Sequence of PRMT5/MEP50 (Q9BQA1 whole entry partner): as the sequence (Q9BQA1 whole entry partner) above
smiles,measurement,setting,value
"Nc1nc2cc(CC[C@H]3C[C@@H](n4ccc5c(N)ncnc54)[C@H](O)[C@@H]3O)ccc2cc1Br [JNJ-64619178, (1S,2R,3S,5R)-3-(2-(2-amino-3-bromoquinolin-7-yl)ethyl)-5-(4-amino-7H-pyrrolo[2,3-d]pyrimidin-7-yl)cyclopentane-1,2-diol]",maximum tolerated dose,[1]; 14 days on/7 days off schedule,3 mg
same,maximum tolerated dose,[1]; continuous dosing schedule,2 mg
same,dose-limiting toxicities,"[1]; human, in vivo",thrombocytopenia of Grade 4 or of Grade 3 lasting longer than 7 days
same,grade of non-hematologic toxicities,"[1]; human, in vivo",Grade 1 or 2 except for one case of Grade 3 vomiting lasting 24 hours
same,adverse events observed in >20% of participants,[1]; in vivo,"gastrointestinal disorders (nausea, vomiting, diarrhea), hematologic disorders (thrombocytopenia, anemia, neutropenia), general disorders (fatigue and asthenia) and dysgeusia"
same,dose limiting toxicities (DLTs),[1]; in vivo,No dose limiting toxicities (DLTs) were observed
same,most frequently reported adverse events,[1]; in vivo,"hematologic, gastrointestinal and dermatologic"
same,time complete regression was maintained postdose,[2]; 10 mg/kg once daily oral,up to 14 days
same,tumor regression,[2]; 10 mg/kg once daily oral,complete regression of tumors
same,tumor growth inhibition (TGI),"[2]; 10 mg/kg once daily oral, Day 42 postimplantation, vs vehicle control",99.1%
same,start of tumor regrowth after cessation of dosing,"[2]; 10 mg/kg once daily, all 8 mice",approximately 14 days
same,antitumor activity (statistical significance) compared with vehicle control,"[2]; 1, 3, and 10 mg/kg once daily oral",statistically significant antitumor activity
same,antitumor activity (biological significance),[2]; 3 and 10 mg/kg once daily oral,biologically significant antitumor activity
same,tumor growth inhibition (TGI) compared to vehicle,[3]; 28 consecutive days,62%
same,tumor growth inhibition (TGI) compared to vehicle,[3]; two cycles of 7 days on/7 days off (7+/7-),63%
same,best overall response: confirmed partial response,"[4]; 1 of 45 participants evaluable for efficacy, from cohort 2",4.3%
same,best overall response: progressive disease,[4]; 20 of 45 participants evaluable for efficacy,43%
same,best overall response: stable disease,[4]; 24 of 45 participants evaluable for efficacy,52%
same,response (RECIST) in ACC,[4]; adenoid cystic carcinoma,confirmed partial response
same,duration of stable disease,"[4]; patients with ACC, prostate cancer, salivary gland carcinomas, and other tumor types",greater than 6 months
same,additional stabilization of the PRMT5/MEP50 complex in comparison to SAM binding,[5],12 degrees Celsius
same,tumor growth inhibition (TGI),[6],up to 72.9%
same,binding kinetics,[7],slow off-rate binding kinetics
same,plasma Cmax and AUC dose dependence,[8],linearly dose-proportional
same,target engagement as measured by plasma SDMA,[9],Robust target engagement

# Reference: US11571437B2, “Methods of treating cancer using PRMT5 inhibitors” (Janssen Pharmaceutica NV, priority 2019, dated 2023)
